{"source": "paper PMC10301922", "about": "“Anti-Oxidant, Anti-Mutagenic Activity and Safety Evaluation of Antrocin” (Toxics, 2023)", "system": "Sprague Dawley rats", "assay": "28-day oral toxicity test: serum biochemistry", "key": {"[1]": {"details": "female rats, 7.5 mg/kg oral 28 d"}, "[2]": {"details": "female rats, 37.5 mg/kg oral 28 d"}, "[3]": {"details": "male rats, 37.5 mg/kg oral 28 d"}}, "data": [{"smiles": "C=C1CC[C@H]2C(C)(C)CCC[C@@]23C(=O)OC[C@@H]13", "note": "[Antrocin, (-)-Antrocin]", "values": [{"measurement": "A/G", "setting": "[1]", "value": "1.9 ± 0.2"}, {"measurement": "ALP", "setting": "[1]", "value": "147.4 ± 27.6", "unit": "U/L"}, {"measurement": "ALT", "setting": "[1]", "value": "24.2 ± 1.9", "unit": "U/L"}, {"measurement": "AST", "setting": "[1]", "value": "58.0 ± 8.5", "unit": "U/L"}, {"measurement": "Albumin", "setting": "[1]", "value": "3.7 ± 0.2", "unit": "g/dL"}, {"measurement": "Amylase", "setting": "[1]", "value": "1280.6 ± 111.3", "unit": "U/L"}, {"measurement": "BUN", "setting": "[1]", "value": "12.0 ± 1.0", "unit": "mg/dL"}, {"measurement": "CK", "setting": "[1]", "value": "100.2 ± 30.8", "unit": "U/L"}, {"measurement": "Ca^2+", "setting": "[1]", "value": "9.9 ± 0.1", "unit": "mg/dL"}, {"measurement": "Cholesterol", "setting": "[1]", "value": "51.2 ± 9.8", "unit": "mg/dL"}, {"measurement": "Creatinine", "setting": "[1]", "value": "0.4 ± 0.0", "unit": "mg/dL"}, {"measurement": "GGT", "setting": "[1]", "value": "1–2 U/L"}, {"measurement": "Globulin", "setting": "[1]", "value": "1.9 ± 0.1", "unit": "g/dL"}, {"measurement": "Glucose", "setting": "[1]", "value": "182.4 ± 42.9", "unit": "mg/dL"}, {"measurement": "HDL-C", "setting": "[1]", "value": "16.0 ± 3.4", "unit": "mg/dL"}, {"measurement": "K^+", "setting": "[1]", "value": "5.2 ± 0.2"}, {"measurement": "LDH", "setting": "[1]", "value": "92.4 ± 73.8", "unit": "U/L"}, {"measurement": "Mg^2+", "setting": "[1]", "value": "2.1 ± 0.1"}, {"measurement": "Na^+", "setting": "[1]", "value": "139.2 ± 1.6"}, {"measurement": "Phosphate", "setting": "[1]", "value": "8.5 ± 1.0", "unit": "mg/dL"}, {"measurement": "TB", "setting": "[1]", "value": "<0.1", "unit": "mg/dL"}, {"measurement": "TG", "setting": "[1]", "value": "32.8 ± 5.2", "unit": "mg/dL"}, {"measurement": "TP", "setting": "[1]", "value": "5.6 ± 0.2"}, {"measurement": "UA", "setting": "[1]", "value": "0.9 ± 0.1", "unit": "mg/dL"}, {"measurement": "A/G", "setting": "[2]", "value": "1.7 ± 0.1"}, {"measurement": "ALP", "setting": "[2]", "value": "116.4 ± 35.7", "unit": "U/L"}, {"measurement": "ALT", "setting": "[2]", "value": "32.6 ± 6.2", "unit": "U/L"}, {"measurement": "AST", "setting": "[2]", "value": "72.6 ± 7.4", "unit": "U/L"}, {"measurement": "Albumin", "setting": "[2]", "value": "3.8 ± 0.2", "unit": "g/dL"}, {"measurement": "Amylase", "setting": "[2]", "value": "1240.4 ± 239.9", "unit": "U/L"}, {"measurement": "BUN", "setting": "[2]", "value": "11.0 ± 0.7", "unit": "mg/dL"}, {"measurement": "CK", "setting": "[2]", "value": "129.8 ± 59.5", "unit": "U/L"}, {"measurement": "Ca^2+", "setting": "[2]", "value": "10.2 ± 0.2", "unit": "mg/dL"}, {"measurement": "Cholesterol", "setting": "[2]", "value": "47.0 ± 11.8", "unit": "mg/dL"}, {"measurement": "Cl^−", "setting": "[2]", "value": "104.2 ± 1.3"}, {"measurement": "Creatinine", "setting": "[2]", "value": "0.3 ± 0.1", "unit": "mg/dL"}, {"measurement": "GGT", "setting": "[2]", "value": "1–2 U/L"}, {"measurement": "Globulin", "setting": "[2]", "value": "2.2 ± 0.1", "unit": "g/dL"}, {"measurement": "Glucose", "setting": "[2]", "value": "138.2 ± 21.7", "unit": "mg/dL"}, {"measurement": "HDL-C", "setting": "[2]", "value": "14.6 ± 3.8", "unit": "mg/dL"}, {"measurement": "K^+", "setting": "[2]", "value": "5.0 ± 0.7"}, {"measurement": "LDH", "setting": "[2]", "value": "125.4 ± 96.2", "unit": "U/L"}, {"measurement": "Mg^2+", "setting": "[2]", "value": "2.4 ± 0.3"}, {"measurement": "Na^+", "setting": "[2]", "value": "142.6 ± 1.1"}, {"measurement": "Phosphate", "setting": "[2]", "value": "8.5 ± 0.5", "unit": "mg/dL"}, {"measurement": "TB", "setting": "[2]", "value": "<0.1", "unit": "mg/dL"}, {"measurement": "TG", "setting": "[2]", "value": "27.2 ± 8.1", "unit": "mg/dL"}, {"measurement": "TP", "setting": "[2]", "value": "6.0 ± 0.3"}, {"measurement": "UA", "setting": "[2]", "value": "1.3 ± 0.6", "unit": "mg/dL"}, {"measurement": "A/G", "setting": "male rats, 7.5 mg/kg oral 28 d", "value": "1.8 ± 0.1"}, {"measurement": "ALP", "setting": "male rats, 7.5 mg/kg oral 28 d", "value": "238.4 ± 43.9", "unit": "U/L"}, {"measurement": "ALT", "setting": "male rats, 7.5 mg/kg oral 28 d", "value": "28.2 ± 3.1", "unit": "U/L"}, {"measurement": "AST", "setting": "male rats, 7.5 mg/kg oral 28 d", "value": "61.4 ± 4.3", "unit": "U/L"}, {"measurement": "Albumin", "setting": "male rats, 7.5 mg/kg oral 28 d", "value": "3.4 ± 0.1", "unit": "g/dL"}, {"measurement": "Amylase", "setting": "male rats, 7.5 mg/kg oral 28 d", "value": "1931.0 ± 241.1", "unit": "U/L"}, {"measurement": "BUN", "setting": "male rats, 7.5 mg/kg oral 28 d", "value": "11.2 ± 1.3", "unit": "mg/dL"}, {"measurement": "CK", "setting": "male rats, 7.5 mg/kg oral 28 d", "value": "185.6 ± 96.1", "unit": "U/L"}, {"measurement": "Ca^2+", "setting": "male rats, 7.5 mg/kg oral 28 d", "value": "9.7 ± 0.2", "unit": "mg/dL"}, {"measurement": "Cholesterol", "setting": "male rats, 7.5 mg/kg oral 28 d", "value": "41.2 ± 6.3", "unit": "mg/dL"}, {"measurement": "Creatinine", "setting": "male rats, 7.5 mg/kg oral 28 d", "value": "0.3 ± 0.0", "unit": "mg/dL"}, {"measurement": "GGT", "setting": "male rats, 7.5 mg/kg oral 28 d", "value": "<1", "unit": "U/L"}, {"measurement": "Globulin", "setting": "male rats, 7.5 mg/kg oral 28 d", "value": "1.9 ± 0.1", "unit": "g/dL"}, {"measurement": "Glucose", "setting": "male rats, 7.5 mg/kg oral 28 d", "value": "178.0 ± 25.7", "unit": "mg/dL"}, {"measurement": "HDL-C", "setting": "male rats, 7.5 mg/kg oral 28 d", "value": "12.8 ± 1.5", "unit": "mg/dL"}, {"measurement": "K^+", "setting": "male rats, 7.5 mg/kg oral 28 d", "value": "6.5 ± 0.3"}, {"measurement": "LDH", "setting": "male rats, 7.5 mg/kg oral 28 d", "value": "219.6 ± 139.5", "unit": "U/L"}, {"measurement": "Mg^2+", "setting": "male rats, 7.5 mg/kg oral 28 d", "value": "2.0 ± 0.1"}, {"measurement": "Na^+", "setting": "male rats, 7.5 mg/kg oral 28 d", "value": "141.8 ± 0.8"}, {"measurement": "Phosphate", "setting": "male rats, 7.5 mg/kg oral 28 d", "value": "9.1 ± 0.9", "unit": "mg/dL"}, {"measurement": "TB", "setting": "male rats, 7.5 mg/kg oral 28 d", "value": "<0.1", "unit": "mg/dL"}, {"measurement": "TG", "setting": "male rats, 7.5 mg/kg oral 28 d", "value": "33.0 ± 8.1", "unit": "mg/dL"}, {"measurement": "TP", "setting": "male rats, 7.5 mg/kg oral 28 d", "value": "5.3 ± 0.2"}, {"measurement": "UA", "setting": "male rats, 7.5 mg/kg oral 28 d", "value": "1.5 ± 0.1", "unit": "mg/dL"}, {"measurement": "A/G", "setting": "[3]", "value": "1.8 ± 0.1"}, {"measurement": "ALP", "setting": "[3]", "value": "256.8 ± 44.0", "unit": "U/L"}, {"measurement": "ALT", "setting": "[3]", "value": "27.6 ± 2.1", "unit": "U/L"}, {"measurement": "AST", "setting": "[3]", "value": "60.2 ± 3.3", "unit": "U/L"}, {"measurement": "Albumin", "setting": "[3]", "value": "3.5 ± 0.2", "unit": "g/dL"}, {"measurement": "Amylase", "setting": "[3]", "value": "2016.4 ± 289.7", "unit": "U/L"}, {"measurement": "BUN", "setting": "[3]", "value": "11.6 ± 1.8", "unit": "mg/dL"}, {"measurement": "CK", "setting": "[3]", "value": "156.4 ± 31.1", "unit": "U/L"}, {"measurement": "Ca^2+", "setting": "[3]", "value": "9.9 ± 0.4", "unit": "mg/dL"}, {"measurement": "Cholesterol", "setting": "[3]", "value": "44.0 ± 2.5", "unit": "mg/dL"}, {"measurement": "Cl^−", "setting": "[3]", "value": "104.6 ± 2.1"}, {"measurement": "Creatinine", "setting": "[3]", "value": "0.3 ± 0.0", "unit": "mg/dL"}, {"measurement": "GGT", "setting": "[3]", "value": "<1", "unit": "U/L"}, {"measurement": "Globulin", "setting": "[3]", "value": "2.0 ± 0.2", "unit": "g/dL"}, {"measurement": "Glucose", "setting": "[3]", "value": "178.0 ± 14.5", "unit": "mg/dL"}, {"measurement": "HDL-C", "setting": "[3]", "value": "15.2 ± 2.8", "unit": "mg/dL"}, {"measurement": "K^+", "setting": "[3]", "value": "6.4 ± 0.6"}, {"measurement": "LDH", "setting": "[3]", "value": "109.8 ± 33.5", "unit": "U/L"}, {"measurement": "Mg^2+", "setting": "[3]", "value": "2.1 ± 0.2"}, {"measurement": "Na^+", "setting": "[3]", "value": "141.4 ± 2.3"}, {"measurement": "Phosphate", "setting": "[3]", "value": "9.6 ± 1.6", "unit": "mg/dL"}, {"measurement": "TB", "setting": "[3]", "value": "<0.1", "unit": "mg/dL"}, {"measurement": "TG", "setting": "[3]", "value": "46.2 ± 8.3", "unit": "mg/dL"}, {"measurement": "TP", "setting": "[3]", "value": "5.5 ± 0.4"}, {"measurement": "UA", "setting": "[3]", "value": "1.6 ± 0.3", "unit": "mg/dL"}]}]}
